According to US20120142705A1, “ISATIN AND OXINDOLE COMPOUNDS” (priority 2010, published 2012):

These molecules were tested against T1, Recombinant human liver GK1 (GST-GK) (Homo sapiens, UniProt P35557) (assay: In vitro glucokinase activity, G6PDH-coupled spectrophotometric assay). Details: 5 mM D-glucose, 30° C., pH 7.1.
T1 construct: made in house; host or cells: E. coli
T1 sequence (P35557 1-466 isoform P35557-2): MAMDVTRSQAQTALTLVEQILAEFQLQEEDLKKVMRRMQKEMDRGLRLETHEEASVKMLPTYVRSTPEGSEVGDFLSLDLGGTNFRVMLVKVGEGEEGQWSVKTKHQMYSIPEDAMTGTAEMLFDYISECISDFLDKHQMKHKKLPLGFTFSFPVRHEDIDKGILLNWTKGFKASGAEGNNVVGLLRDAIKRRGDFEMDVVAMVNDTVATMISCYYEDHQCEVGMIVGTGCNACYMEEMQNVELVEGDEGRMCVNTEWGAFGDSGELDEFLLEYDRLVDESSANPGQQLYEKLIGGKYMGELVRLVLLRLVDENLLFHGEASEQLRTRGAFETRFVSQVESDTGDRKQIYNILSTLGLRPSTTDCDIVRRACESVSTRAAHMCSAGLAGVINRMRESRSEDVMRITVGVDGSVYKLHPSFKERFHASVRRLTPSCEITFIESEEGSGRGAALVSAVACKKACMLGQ
Assay type: biochemical
Method: Glucokinase In Vitro Assay Protocol: Glucokinase (GK) was assayed by coupling the production of glucose-6-phosphate to the generation of NADH with glucose-6-phosphate dehydrogenase (G6PDH, 0.75-1 kunits/mg; Boehringer Mannheim, Indianapolis, Ind.) from Leuconostoc mesenteroides as the coupling enzyme (Scheme 2).
Recombinant human liver GK1 was expressed in E. coli as a glutathione S-transferase fusion protein (GST-GK) [Liang et al, 1995] and was purified by chromatography over a glutathione-Sepharose 4B affinity column using the procedure provided by the manufacturer (Amersham Pharmacia Biotech, Piscataway, N.J.).
The assay was conducted at 30° C. in a flat bottom 96-well tissue culture plate from Costar (Cambridge, Mass.) with a final incubation volume of 120 μL. The incubation reaction contained the following: 25 mM Hepes buffer (pH 7.1), 25 mM KCl, 5 mM D-glucose, 1 mM ATP, 1.8 mM NAD, 2 mM MgCl2, 1 μM sorbitol-6-phosphate, 1 mM dithiothreitol, test drug or 10% dimethylsulfoxide, ˜7 units/ml G6PDH, and GK (see below). All organic reagents were >98% pure and were from Boehringer Mannheim with the exceptions of D-glucose and Hepes which were from Sigma Chemical Co, St Louis, Mo. Test compounds were dissolved in dimethylsulfoxide and were added to the incubation reaction minus GST-GK in a volume of 12 μL to yield a final dimethylsulfoxide concentration of 10%. This mix was pre-incubated in the temperature controlled chamber of a SPECTRAmax 250 microplate spectrophotometer (Molecular Devices Corporation, Sunnyvale, Calif.) for 10 minutes to allow temperature equilibrium and then the reaction was started by the addition of 20 μL GST-GK.
After addition of enzyme, the increase in optical density (OD) at 340 nm was monitored spectrophotometrically to determine the rate of change (OD340 per min). The GK activity (OD340/min) in control wells (10% dimethylsulfoxide minus GK activators) was compared with the activity in wells containing test GK activators, and the concentration of activator that produced a 50% increase in the activity of GK, i.e., the SC1.5, was calculated.

Row | SC1.5 (concentration of activator that produced a 50% increase in the activity of GK) [µM] | SMILES
1 | 1.22 | O=C(Nc1nccs1)C(CC1CCCC1)N1C(=O)Cc2cc(Cl)ccc21 (stereo not shown) [Example 98, 2-(5-Chloro-2-oxo-2,3-dihydro-indol-1-yl)-3-cyclopentyl-N-thiazol-2-yl-propionamide]
2 | 0.23 | Cc1ccc2c(c1)N(C(CC1CCCC1)C(=O)Nc1ccccn1)C(=O)C2 (stereo not shown) [Example 132, 3-Cyclopentyl-2-(6-methyl-2-oxo-2,3-dihydro-indol-1-yl)-N-pyridin-2-yl-propionamide]
3 | 1.1 | Cn1ccc(NC(=O)C(CC2CCCC2)N2C(=O)Cc3ccc(Cl)cc32)n1 (stereo not shown) [Example 124, 2-(6-Chloro-2-oxo-2,3-dihydro-indol-1-yl)-3-cyclopentyl-N-(1-methyl-1H-pyrazol-3-yl)-propionamide]
4 | 3.36 | O=C1C(=O)N(C(CC2CCCC2)C(=O)Nc2ccn(C[C@@H](O)CO)n2)c2ccc(Cl)cc21 (stereo partly drawn) [Example 93, 2-(5-Chloro-2,3-dioxo-2,3-dihydro-indol-1-yl)-3-cyclopentyl-N-[1-((R)-2,3-dihydroxy-propyl)-1H-pyrazol-3-yl]-propionamide]
5 | 3.29 | CC(C)CC(C(=O)Nc1nccs1)N1C(=O)C(=O)c2ccc(Cl)cc21 (stereo not shown) [Example 109, 2-(6-Chloro-2,3-dioxo-2,3-dihydro-indol-1-yl)-4-methyl-pentanoic acid thiazol-2-ylamide]
6 | 0.19 | O=C(Nc1nccs1)C(CC1CCCC1)N1C(=O)Cc2ccc(Br)cc21 (stereo not shown) [Example 134, 2-(6-Bromo-2-oxo-2,3-dihydro-indol-1-yl)-3-cyclopentyl-N-thiazol-2-yl-propionamide]
7 | 0.1 | O=C(Nc1ccccn1)C(CC1CCCC1)N1C(=O)Cc2ccc(Cl)cc21 (stereo not shown) [Example 122, 2-(6-Chloro-2-oxo-2,3-dihydro-indol-1-yl)-3-cyclopentyl-N-pyridin-2-yl-propionamide]
8 | 0.34 | O=C(Nc1cnccn1)C(CC1CCCC1)N1C(=O)Cc2ccc(Br)cc21 (stereo not shown) [Example 133, 2-(6-Bromo-2-oxo-2,3-dihydro-indol-1-yl)-3-cyclopentyl-N-pyrazin-2-yl-propionamide]
9 | 3.3 | Cn1ccc(NC(=O)C(CC2CCCC2)N2C(=O)Cc3cc(Cl)ccc32)n1 (stereo not shown) [Example 99, 2-(5-Chloro-2-oxo-2,3-dihydro-indol-1-yl)-3-cyclopentyl-N-(1-methyl-1H-pyrazol-3-yl)-propionamide]
10 | 1.84 | O=C(Nc1cnccn1)C(CC1CCCC1)N1C(=O)Cc2cc(Cl)ccc21 (stereo not shown) [Example 97, 2-(5-Chloro-2-oxo-2,3-dihydro-indol-1-yl)-3-cyclopentyl-N-pyrazin-2-yl-propionamide]

Second part, the molecule before the results:

Row | SMILES | SC1.5 (concentration of activator that produced a 50% increase in the activity of GK) [µM]
11 | Cc1ccc2c(c1)CC(=O)N2C(CC(C)C)C(=O)Nc1nccs1 (stereo not shown) [Example 88, 4-Methyl-2-(5-methyl-2-oxo-2,3-dihydro-indol-1-yl)-pentanoic acid thiazol-2-ylamide] | 22.88
12 | COc1ccc2c(c1)C(=O)C(=O)N2C(CC1CCCC1)C(=O)Nc1ccccn1 (stereo not shown) [Example 46, 3-Cyclopentyl-2-(5-methoxy-2,3-dioxo-2,3-dihydro-indol-1-yl)-N-pyridin-2-yl-propionamide] | 2.32
13 | O=C(Nc1cnccn1)C(CC1CCCC1)N1C(=O)Cc2ccccc21 (stereo not shown) [Example 2, 3-Cyclopentyl-2-(2-oxo-2,3-dihydro-indol-1-yl)-N-pyrazin-2-yl-propionamide] | 5.93
14 | O=C(Nc1nccs1)C(CC1CCCC1)N1C(=O)Cc2ccccc21 (stereo not shown) [Example 3, 3-Cyclopentyl-2-(2-oxo-2,3-dihydro-indol-1-yl)-N-thiazol-2-yl-propionamide] | 3.3
15 | CC(C)CC(C(=O)Nc1ccccn1)N1C(=O)C(=O)c2cc(OC(F)(F)F)ccc21 (stereo not shown) [Example 38, 2-(2,3-Dioxo-5-trifluoromethoxy-2,3-dihydro-indol-1-yl)-4-methyl-pentanoic acid pyridin-2-ylamide] | 2.57
16 | Cc1ccc2c(c1)C(=O)C(=O)N2C(CC1CCCC1)C(=O)Nc1cnccn1 (stereo not shown) [Example 76, 3-Cyclopentyl-2-(5-methyl-2,3-dioxo-2,3-dihydro-indol-1-yl)-N-pyrazin-2-yl-propionamide] | 22.77
17 | Cc1ccc2c(c1)C(=O)C(=O)N2C(CC1CCCC1)C(=O)Nc1ccccn1 (stereo not shown) [Example 77, 3-Cyclopentyl-2-(5-methyl-2,3-dioxo-2,3-dihydro-indol-1-yl)-N-pyridin-2-yl-propionamide] | 6.67
18 | CC(C)CC(C(=O)Nc1ccccn1)N1C(=O)Cc2cc(OC(F)(F)F)ccc21 (stereo not shown) [Example 43, 4-Methyl-2-(2-oxo-5-trifluoromethoxy-2,3-dihydro-indol-1-yl)-pentanoic acid pyridin-2-ylamide] | 1.41
19 | CC(C)CC(C(=O)Nc1ccccn1)N1C(=O)Cc2c(Cl)cccc21 (stereo not shown) [Example 26, 2-(4-Chloro-2-oxo-2,3-dihydro-indol-1-yl)-4-methyl-pentanoic acid pyridin-2-ylamide] | 6.77
20 | O=C(Nc1nccs1)C(CC1CCCC1)N1C(=O)Cc2cc(OC(F)(F)F)ccc21 (stereo not shown) [Example 35, 3-Cyclopentyl-2-(2-oxo-5-trifluoromethoxy-2,3-dihydro-indol-1-yl)-N-thiazol-2-yl-propionamide] | 0.49
21 | Cc1ccc2c(c1)CC(=O)N2C(CC(C)C)C(=O)Nc1cnccn1 (stereo not shown) [Example 91, 4-Methyl-2-(5-methyl-2-oxo-2,3-dihydro-indol-1-yl)-pentanoic acid pyrazin-2-ylamide] | 28.45
22 | CC(C)CC(C(=O)Nc1cnccn1)N1C(=O)Cc2cc(OC(F)(F)F)ccc21 (stereo not shown) [Example 44, 4-Methyl-2-(2-oxo-5-trifluoromethoxy-2,3-dihydro-indol-1-yl)-pentanoic acid pyrazin-2-ylamide] | 3.67
23 | COc1ccc2c(c1)C(=O)C(=O)N2C(CC1CCCC1)C(=O)Nc1nccs1 (stereo not shown) [Example 48, 3-Cyclopentyl-2-(5-methoxy-2,3-dioxo-2,3-dihydro-indol-1-yl)-N-thiazol-2-yl-propionamide] | 5.48
24 | COc1ccc2c(c1)CC(=O)N2C(CC1CCCC1)C(=O)Nc1ccccn1 (stereo not shown) [Example 49, 3-Cyclopentyl-2-(5-methoxy-2-oxo-2,3-dihydro-indol-1-yl)-N-pyridin-2-yl-propionamide] | 1.74
25 | CC(C)CC(C(=O)Nc1ccccn1)N1C(=O)Cc2ccccc21 (stereo not shown) [Example 12, 4-Methyl-2-(2-oxo-2,3-dihydro-indol-1-yl)-pentanoic acid pyridin-2-ylamide] | 18.09

Same assay, conditions: @ 30 uM; 5 mM D-glucose, 30° C.

Row | fold induction at 30 µM | SMILES
26 | 1.5 | CC(C)CC(C(=O)Nc1nccs1)N1C(=O)C(=O)c2cc(Br)ccc21 (stereo not shown) [Example 71, 2-(5-Bromo-2,3-dioxo-2,3-dihydro-indol-1-yl)-4-methyl-pentanoic acid thiazol-2-ylamide]
27 | 1.29 | Cc1ccc2c(c1)C(=O)C(=O)N2C(CC(C)C)C(=O)Nc1cnccn1 (stereo not shown) [Example 84, 4-Methyl-2-(5-methyl-2,3-dioxo-2,3-dihydro-indol-1-yl)-pentanoic acid pyrazin-2-ylamide]
28 | 1.3 | CC(C)CC(C(=O)Nc1cnccn1)N1C(=O)C(=O)c2cc(Cl)ccc21 (stereo not shown) [Example 103, 2-(5-Chloro-2,3-dioxo-2,3-dihydro-indol-1-yl)-4-methyl-pentanoic acid pyrazin-2-ylamide]
